The values that follow come from patent US4333930A, “Orthoarylideneaminophenethylamines and pharmaceutical compositions” (priority 1980, dated 1982).

Where two headings read alike, the source gives them in different places.

Series [1] in a line: Oral toxicity (mortality) in the mouse, Table 1. The series is classed as in vivo. To be noted: mouse, in vivo, po, Swiss mice, 14 days. On the procedure:
(§1) The mortality percentages caused by the products of the present invention administered orally to Swiss mice are shown in Table 1. The animals, free of specific pathological organism were housed in an air conditioned room from 24 to 48 hours before the start of the experiments. They were divided up into lots of 5 males and 5 females. With the animals unfed for 24 hours, the substances were administered intragastrically in a base of 6% gum arabic in a volume equal to 0.1 ml for 10 g of animal weight. The mortality was recorded at 14 days.
(§2) % of mortality as a function of the dose

The test system of series [2] is Swiss mice. The series can be described thus: Oral toxicity (mortality) in the mouse, Table 1. The format is in vivo. To be noted: 14 days, 20160 min. The procedure:
as §1, §2

Series [3] concerns phenylbenzoquinone (PBQ). The series can be described thus: Analgesic activity using phenylbenzoquinone (PBQ) as noxious agent, Table 2. The series is classed as in vivo, male Swiss mouse. On the procedure:
The analgesic activity was determined with the male Swiss mouse using phenylbenzoquinone (PBQ) (a variation of the method of Siegmund et al, Proc. Soc. Exp. Med., […], 95, 729-31) as the noxious agent. Twenty-eightminutes after having administered the test products in a suspension in a 6% gum base, the PBQ solution was injected. The mice were then observed ca. 5 mn. for the next five minutes.
% of analgesic activity as a function of
the dose expressed in mg/kg

Series [4] concerns number of escapes the animal made in 5 minutes. In words: Escape test, Table 3. To be noted: 5 min, read-out: % of activity (variation of the number of escapes). The format is in vivo, mouse. An excerpt: The products of the invention were always administered orally in 6% gum base.
The notation NS signifies that the difference between the results noted for the product and the results noted for the excipient alone is not significant at the threshold 0.05 according to the Student t Test.

Series [5] relates to ptosis induced by reserpine. The series can be described thus: Antagonism of ptosis induced by reserpine, Table 6. The series is classed as in vivo. As to conditions: oral, read-out: % of inhibition of ptosis induced by reserpine. The text has this:
(§3) The psychotropic profile of the present invention products has been characterized with the animals in numerous tests some of whose results are shown hereinafter. The products of the invention were always administered orally in 6% gum base.
(§4) Certain tests made it possible to show antidepressive activities. These are tests of antagonism to the effects of reserpine, oxotremorine (according to Everett G. M. et al, Science, 1956, 124, 79 and Levy J. et al, Therapie 1965, 20, 265) and to despair (according to Porsolt P. D. et al, Eur. J. Pharmacol., 1978, 47, 379-91).
% of inhibition of ptosis induced by reserpine
as a function of the dose administered orally

Series [6] concerns trembling induced by oxotremorine. The series can be described thus: Antagonism of trembling induced by oxotremorine, Table 7. The series is classed as in vivo. As to conditions: oral, read-out: % of inhibition of trembling induced by oxotremorine.
Description: as §3, §4
% of inhibition of trembling induced by
oxotremorine as a function of the dose
administered expressed in mg/kg

Series [7] relates to number of displacements of the animal. The series can be described thus: Four plates test (anxiolytic activity), Table 5. The format is in vivo. As to conditions: oral, mouse.
Description: as §3
A certain number of products manifest an anxiolytic activity evidenced in the test with the four plates with the mouse (Table 5).
% of increase in the number of displacements of the
animal as a function of the dose expressed in mg/kg

Series [8] deals with stereotype induced by apomorphine. In words: Antagonism of the stereotype induced by apomorphine, Table 4. To be noted: for % of activity vis-a-vis the stereotype induced by apomorphine: oral. The format is in vivo.
Description: as §3
% of activity vis-a-vis the stereotype
induced by apomorphine as a function of the
administered dose expressed in mg/kg

Setting [9] is: 50 mg/kg, male Swiss mouse, PBQ.
Where [10] appears, read: Mus musculus, male Swiss mouse, PBQ, read-out: % of analgesic activity.

As to `CN(C)CCc1cc2c(cc1N=Cc1cccs1)OCO2` [COR 01 151], the mortality – broadly, the percentage killed – at 336 h in series [1] (750 mg/kg) worked out at 60%. Besides, the entries for the “% of mortality” value in series [2] (150 mg/kg), in series [2] (250 mg/kg) and in series [2] (500 mg/kg) were 0%, 10% and 40%, respectively. For the same compound, the “% of analgesic activity” value in series [3] (setting [9]) worked out at 41%. The inhibition in vivo at 100 mg/kg in series [3] (Mus musculus, read-out: % of analgesic activity, 100 mg/kg, male Swiss mouse, PBQ) stood at 79%. Also, in series [4] (Mus musculus, po), the change in vivo at 100 mg/kg was -41%.
Turning to `CN(C)CCc1cc2c(cc1N=Cc1cccs1)OCO2` [COR 01 163], the “% of mortality” value in series [2] (150 mg/kg) was 25%; in series [2] (250 mg/kg) it was 70%; in series [2] (500 mg/kg), 100%. For the same compound, in series [3] (setting [9]), the “% of analgesic activity” value worked out at 17.5%.
The matching figures for `CN(C)CCc1cc2c(cc1N=Cc1cccs1)OCO2` [COR 01 171]: 20%, 80%, 90% and 51%.
In series [1] (2000 mg/kg), `C(=Nc1cc2c(cc1CCN1CCCCC1)OCO2)c1cccnc1` [COR 01 174] returned a mortality at 336 h of 50%. Moreover, the entries for the “% of mortality” value in series [2] (500 mg/kg) and in series [2] (1000 mg/kg) were 0% and 10%, respectively. Also, the “% of analgesic activity” value in series [3] (100 mg/kg, male Swiss mouse, PBQ) worked out at 48%. The inhibition in vivo at 200 mg/kg in series [3] (setting [10]) came to 18%.
Take `CN(C)CCc1cc2c(cc1N=Cc1cccs1)OCO2` [COR 01 179]: the “% of mortality” value is reported as 10% in series [2] (250 mg/kg) and 90% in series [2] (500 mg/kg).
As for `C(=Nc1cc2c(cc1CCN1CCOCC1)OCO2)c1cccs1` [COR 01 180], the mortality at 336 h in series [1] (500 mg/kg) was determined as 0%; in series [1] (1000 mg/kg), 70%. The change in vivo at 2.5 mg/kg in series [5] (2.5 mg/kg) is -18%. In series [5] (5 mg/kg), the change in vivo at 5 mg/kg was -34%. The change in vivo at 10 mg/kg in series [5] (10 mg/kg) was -26%. Besides, the change in vivo at 25 mg/kg in series [5] (25 mg/kg) is -20%. For the same compound, the change in vivo at 50 mg/kg was -22% in series [6] (50 mg/kg) and -21% in series [4] (50 mg/kg, oral, mouse, 5 minutes). Moreover, the change in vivo at 100 mg/kg in series [6] (100 mg/kg) was -44%; in series [4] (100 mg/kg, oral, mouse, 5 minutes) it was -37%. For the same compound, the change in vivo at 200 mg/kg was -44% in series [6] (200 mg/kg) and -75% in series [4] (200 mg/kg, oral, mouse, 5 minutes). Also, in series [3] (Mus musculus, 50 mg/kg, male Swiss mouse, PBQ, read-out: % of analgesic activity), the inhibition in vivo at 50 mg/kg turned out to be 18%. In series [3] (Mus musculus, 100 mg/kg, male Swiss mouse, PBQ, read-out: % of analgesic activity), the inhibition in vivo at 100 mg/kg was determined as 26%. In addition, the inhibition in vivo at 200 mg/kg in series [3] (setting [10]) stood at 34%. Also, the “% of increase in the number of displacements of the animal” value in series [7] (25 mg/kg) was “+69%”; in series [7] (50 mg/kg), “+88%”; in series [7] (75 mg/kg) it was “+35%”.
For `C(=Nc1cc2c(cc1CCN1CCCC1)OCO2)c1cccnc1` [COR 01 186], the results for the mortality at 336 h in series [1] (750 mg/kg) and in series [1] (1500 mg/kg) were 0% and 50%, respectively. Also, the “% of mortality” value in series [2] (1000 mg/kg) is reported as 40%.
The compound `CN(C)CCc1cc2c(cc1N=Cc1cccnc1)OCO2` [COR 01 201, 6-dimethylaminoethyl N-(pyridylidene-3)-1,3-benzodioxole-5-ylamine] had a mortality at 336 h in series [1] (2000 mg/kg) of 30%. Further, the “% of mortality” value in series [2] (1000 mg/kg) was determined as 10%.
Regarding `Cc1ccc(C=Nc2cc3c(cc2CCN(C)C)OCO3)cc1` [COR 01 206], the mortality at 336 h stood at 0% in series [1] (1500 mg/kg) and 50% in series [1] (2000 mg/kg). In addition, in series [4] (Mus musculus, po), the change in vivo at 25 mg/kg was -18%. For the same compound, in series [4] (Mus musculus, po), the change in vivo at 50 mg/kg was -28%. Further, the change in vivo at 100 mg/kg in series [4] (Mus musculus, po) is -63%. Moreover, the “% of activity vis-a-vis the stereotype induced by apomorphine” value in series [8] (50 mg/kg) is -53%; in series [8] (100 mg/kg), -71%; in series [8] (200 mg/kg) it was -22%. For the same compound, the “antagonism vis-a-vis the stereotype with apomorphine” value in series [8] (in words) is given as “manifest an antagonism”.
